# Patent publication US11339130B1 (Blade Therapeutics, Inc., priority 2016, dated 2022)
# pIC50: −log10 of the molar value. Like-named read-outs stand apart in the source and are kept apart here.
# Legend:
# [1] = test system: Calpain activity in SH-SY5Y cells; experiment: SH-SY5Y + AMC fluorescence assay (Suc-LLVY-AMC substrate); type: cell-based; conditions: read-out: SH-SY5Y + AMC IC50
# [2] = test system: Calpain activity in SH-SY5Y cells (SBDP-150); experiment: SH-SY5Y Spectrin western blot assay (SBDP-150 breakdown product, A23187-induced); type: cell-based; conditions: Homo sapiens, SH-SY5Y cells, read-out: SH-SY5Y Spectrin IC50
# [3] = molecular target: T1, Human Calpain 9/NS1 (Homo sapiens, UniProt O14815); experiment: Calpain inhibition continuous fluorescence (FRET) assay, Human Calpain 9/NS1; type: biochemical; conditions: read-out: Human Calpain 9/NS1 IC50
# T1 sequence (O14815 1-690): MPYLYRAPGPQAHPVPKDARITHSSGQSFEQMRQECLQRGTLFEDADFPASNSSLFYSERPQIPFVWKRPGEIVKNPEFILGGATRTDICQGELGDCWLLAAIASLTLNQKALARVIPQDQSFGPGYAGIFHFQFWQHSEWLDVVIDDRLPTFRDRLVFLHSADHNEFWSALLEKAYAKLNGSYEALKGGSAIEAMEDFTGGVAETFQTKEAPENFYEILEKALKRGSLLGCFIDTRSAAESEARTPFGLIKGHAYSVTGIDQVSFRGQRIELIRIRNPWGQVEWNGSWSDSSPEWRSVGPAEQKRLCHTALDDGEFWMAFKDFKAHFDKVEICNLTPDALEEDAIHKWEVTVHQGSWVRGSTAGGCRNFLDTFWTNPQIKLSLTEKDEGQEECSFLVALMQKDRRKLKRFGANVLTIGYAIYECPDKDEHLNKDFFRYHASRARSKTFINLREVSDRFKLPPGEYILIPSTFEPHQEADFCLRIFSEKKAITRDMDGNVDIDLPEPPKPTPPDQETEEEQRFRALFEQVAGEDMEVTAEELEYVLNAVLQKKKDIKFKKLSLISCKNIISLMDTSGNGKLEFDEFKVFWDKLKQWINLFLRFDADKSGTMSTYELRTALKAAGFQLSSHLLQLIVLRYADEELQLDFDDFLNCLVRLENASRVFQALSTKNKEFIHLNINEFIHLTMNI
# T1 sequence (P04632 1-268 partner): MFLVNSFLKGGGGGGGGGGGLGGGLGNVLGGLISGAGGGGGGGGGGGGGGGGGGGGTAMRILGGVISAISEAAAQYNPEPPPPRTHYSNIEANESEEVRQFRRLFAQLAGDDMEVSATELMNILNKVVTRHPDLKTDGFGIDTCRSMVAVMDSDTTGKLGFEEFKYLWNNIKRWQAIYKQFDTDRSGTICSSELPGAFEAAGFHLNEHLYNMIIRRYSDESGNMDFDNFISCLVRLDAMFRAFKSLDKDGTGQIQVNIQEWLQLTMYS
# How it was run: (§1)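 Continuous FRET read (ex 490/em 520 nm, 10 min) of calpain 1, 2 or 9 cleaving an internally quenched 5-FAM peptide, triggered by substrate with CaCl2 after enzyme–inhibitor incubation at ambient 25 °C, pH 7.5 Tris/NaCl/DTT buffer. IC50 from initial rates (1-5 min) via 4-parameter fit.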
# [4] = molecular target: T2, Human Calpain 1/NS1 (Homo sapiens, UniProt P07384); experiment: Calpain inhibition continuous fluorescence (FRET) assay, Human Calpain 1/NS1; type: biochemical; conditions: read-out: Human Calpain 1/NS1 IC50
# T2 sequence (P07384 1-714): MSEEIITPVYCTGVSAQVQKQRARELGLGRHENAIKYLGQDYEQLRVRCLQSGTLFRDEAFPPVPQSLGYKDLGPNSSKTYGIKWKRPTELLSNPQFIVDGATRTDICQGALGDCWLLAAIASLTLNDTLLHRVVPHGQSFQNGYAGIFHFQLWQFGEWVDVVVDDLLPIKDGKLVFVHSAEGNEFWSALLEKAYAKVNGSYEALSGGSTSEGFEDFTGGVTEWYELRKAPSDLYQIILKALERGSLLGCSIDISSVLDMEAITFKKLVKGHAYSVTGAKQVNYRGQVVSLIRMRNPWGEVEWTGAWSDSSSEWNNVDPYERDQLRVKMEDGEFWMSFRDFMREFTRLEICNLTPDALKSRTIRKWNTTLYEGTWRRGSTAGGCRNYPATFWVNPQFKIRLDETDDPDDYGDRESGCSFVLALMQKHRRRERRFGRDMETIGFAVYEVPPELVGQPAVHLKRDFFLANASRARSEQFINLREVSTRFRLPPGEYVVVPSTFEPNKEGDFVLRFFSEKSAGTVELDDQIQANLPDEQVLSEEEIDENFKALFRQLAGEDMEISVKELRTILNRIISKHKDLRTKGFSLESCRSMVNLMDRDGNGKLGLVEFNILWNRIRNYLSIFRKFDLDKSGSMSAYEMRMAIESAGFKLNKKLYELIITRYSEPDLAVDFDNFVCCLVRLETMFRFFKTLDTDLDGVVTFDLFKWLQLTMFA
# T2 sequence (P04632 1-268 partner): T1 sequence (P04632 1-268 partner)
# How it was run: as §1
# [5] = molecular target: T3, Human Calpain 2/NS1 (Homo sapiens, UniProt P17655); experiment: Calpain inhibition continuous fluorescence (FRET) assay, Human Calpain 2/NS1; type: biochemical; conditions: read-out: Human Calpain 2/NS1 IC50
# T3 sequence (P17655 1-700): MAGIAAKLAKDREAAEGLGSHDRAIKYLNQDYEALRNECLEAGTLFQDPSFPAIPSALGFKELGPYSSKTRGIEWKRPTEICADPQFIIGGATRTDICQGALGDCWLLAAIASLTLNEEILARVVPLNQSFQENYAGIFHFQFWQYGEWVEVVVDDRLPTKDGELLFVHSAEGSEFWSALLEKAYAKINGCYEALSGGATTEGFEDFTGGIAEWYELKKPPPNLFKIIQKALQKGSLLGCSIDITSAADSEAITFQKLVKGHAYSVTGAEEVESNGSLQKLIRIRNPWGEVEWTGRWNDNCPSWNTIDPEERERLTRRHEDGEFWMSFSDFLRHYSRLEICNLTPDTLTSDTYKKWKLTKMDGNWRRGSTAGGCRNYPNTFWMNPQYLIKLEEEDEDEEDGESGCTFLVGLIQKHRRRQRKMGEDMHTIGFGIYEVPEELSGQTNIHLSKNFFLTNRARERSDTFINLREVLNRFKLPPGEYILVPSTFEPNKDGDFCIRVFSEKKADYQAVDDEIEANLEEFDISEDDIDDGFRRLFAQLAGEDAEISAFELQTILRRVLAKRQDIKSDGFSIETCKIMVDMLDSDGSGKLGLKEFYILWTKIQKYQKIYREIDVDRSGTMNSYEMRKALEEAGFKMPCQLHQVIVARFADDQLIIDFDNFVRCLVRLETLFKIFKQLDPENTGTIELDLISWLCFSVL
# T3 sequence (P04632 1-268 partner): T1 sequence (P04632 1-268 partner)
# How it was run: as §1
# [6] = A23187-induced SBDP-150, western blot
# [7] = Column D, A23187-induced SBDP-150
SMILES,pIC50 [1],"pIC50 [2, 6]",pIC50 [3],pIC50 [4],pIC50 [5],pIC50 ([1]; Column E),"pIC50 [2, 7]",pIC50 ([3]; Column C),pIC50 ([4]; Column A),pIC50 ([5]; Column B)
"COc1ccc(C[C@H](NC(=O)c2cn(C)nc2-c2ccccc2)C(=O)C(N)=O)cc1 [Compound 420, (S)—N-(4-amino-1-(4-methoxyphenyl)-3,4-dioxobutan-2-yl)-1-methyl-3-phenyl-1H-pyrazole-4-carboxamide]",< 4.60,> 5.00,> 5.52,> 5.52,> 5.52,,,,,
"Cc1cc(C(=O)NC(Cc2ccccc2)C(=O)C(N)=O)n(-c2ccc(OC3CCOCC3)cc2)n1 (centres unmarked) [Compound 440, N-(4-amino-3,4-dioxo-1-phenylbutan-2-yl)-3-methyl-1-(4-((tetrahydro-2H-pyran-4-yl)oxy)phenyl)-1H-pyrazole-5-carboxamide]",< 4.60,> 5.00,> 5.52,> 5.52,> 5.52,,,,,
"Cc1cc(C(=O)N[C@@H](Cc2ccccc2)C(=O)C(N)=O)n(-c2ccc(CNC(=O)c3ccccc3)cc2)n1 [Compound 154, (S)—N-(4-amino-3,4-dioxo-1-phenylbutan-2-yl)-1-(4-(benzamidomethyl)phenyl)-3-methyl-1H-pyrazole-5-carboxamide]",,,,,,< 4.60,4.60 to 5.00,> 5.52,> 5.52,> 5.52
"NC(=O)C(=O)[C@H](Cc1ccccc1)NC(=O)c1nnsc1-c1ccccc1 [Compound 28, (S)—N-(4-amino-3,4-dioxo-1-phenylbutan-2-yl)-5-phenyl-1,2,3-thiadiazole-4-carboxamide]",,,,,,> 5.00,> 5.00,> 5.52,> 5.52,> 5.52
"NC(=O)C(=O)C(Cc1ccccc1)NC(=O)c1cn(C2CCCC2)nc1-c1ccccc1 (centres unmarked) [Compound 525, N-(4-amino-3,4-dioxo-1-phenylbutan-2-yl)-1-cyclopentyl-3-phenyl-1H-pyrazole-4-carboxamide]",> 5.00,< 4.60,> 5.52,> 5.52,> 5.52,,,,,
"Cc1cc(C(=O)N[C@@H](Cc2ccccc2)C(=O)C(N)=O)n(-c2nc(-c3ccccc3)cs2)n1 [Compound 82, (S)—N-(4-amino-3,4-dioxo-1-phenylbutan-2-yl)-3-methyl-1-(4-phenylthiazol-2-yl)-1H-pyrazole-5-carboxamide]",,,,,,< 4.60,> 5.00,> 5.52,> 5.52,> 5.52
"NC(=O)C(=O)C(Cc1ccccc1)NC(=O)c1cnoc1-c1ccccc1F (centres unmarked) [Compound 556, N-(4-amino-3,4-dioxo-1-phenylbutan-2-yl)-5-(2-fluorophenyl)isoxazole-4-carboxamide]",> 5.00,> 5.00,> 5.52,> 5.52,> 5.52,,,,,
"Cn1cc(C(=O)NC(Cc2ccccc2)C(=O)C(N)=O)c(-c2ccc3c(c2)OC(F)(F)O3)n1 (centres unmarked) [Compound 548, N-(4-amino-3,4-dioxo-1-phenylbutan-2-yl)-3-(2,2-difluorobenzo[d][1,3]dioxol-5-yl)-1-methyl-1H-pyrazole-4-carboxamide]",< 4.60,< 4.60,> 5.52,> 5.52,> 5.52,,,,,
"Cc1nc(-c2ccccc2)c(C(=O)N[C@@H](Cc2ccc(F)cc2)C(=O)C(N)=O)o1 [Compound 107, (S)—N-(4-amino-1-(4-fluorophenyl)-3,4-dioxobutan-2-yl)-2-methyl-4-phenyloxazole-5-carboxamide]",,,,,,> 5.00,> 5.00,> 5.52,> 5.52,> 5.52
"Cc1cc(C(=O)N[C@@H](Cc2ccccc2)C(=O)C(N)=O)n(-c2ncc(-c3ccccc3)o2)n1 [Compound 212, (S)—N-(4-amino-3,4-dioxo-1-phenylbutan-2-yl)-3-methyl-1-(5-phenyloxazol-2-yl)-1H-pyrazole-5-carboxamide]",,,,,,> 5.00,4.60 to 5.00,> 5.52,> 5.52,> 5.52
